Results from ChEMBL document CHEMBL4507295 (2021).

Experiments:
[1] = molecular target: Casein kinase I isoform gamma-2 (Homo sapiens) (UniProt P78368); conditions: Compound concentration 1000.0 nM
[2] = molecular target: Wee1-like protein kinase 2 (Homo sapiens) (UniProt P0C1S8); conditions: Compound concentration 1000.0 nM
[3] = molecular target: Serine/threonine-protein kinase tousled-like 2 (Homo sapiens) (UniProt Q86UE8); conditions: Compound concentration 1000.0 nM
[4] = molecular target: Serine/threonine-protein kinase Sgk1 (Homo sapiens) (UniProt O00141); conditions: Compound concentration 1000.0 nM
[5] = molecular target: Insulin receptor (Homo sapiens) (UniProt P06213); conditions: Compound concentration 1000.0 nM
[6] = molecular target: Cyclin-dependent kinase 19 (Homo sapiens) (UniProt Q9BWU1); conditions: Compound concentration 1000.0 nM
[7] = molecular target: Testis-specific serine/threonine-protein kinase 1 (Homo sapiens) (UniProt Q9BXA7); conditions: Compound concentration 1000.0 nM
[8] = molecular target: Serine/threonine-protein kinase WNK1 (Homo sapiens) (UniProt Q9H4A3); conditions: Compound concentration 1000.0 nM
[9] = molecular target: Casein kinase I isoform alpha (Homo sapiens) (UniProt P48729); conditions: Compound concentration 1000.0 nM
[10] = molecular target: Ankyrin repeat and protein kinase domain-containing protein 1 (Homo sapiens) (UniProt Q8NFD2); conditions: Compound concentration 1000.0 nM
[11] = molecular target: Eukaryotic translation initiation factor 2-alpha kinase 1 (Homo sapiens) (UniProt Q9BQI3); conditions: Compound concentration 1000.0 nM
[12] = molecular target: Serine/threonine-protein kinase tousled-like 1 (Homo sapiens) (UniProt Q9UKI8); conditions: Compound concentration 1000.0 nM
[13] = molecular target: Serine/threonine-protein kinase 10 (Homo sapiens) (UniProt O94804); conditions: Compound concentration 1000.0 nM
[14] = molecular target: Serine/threonine-protein kinase PAK 6 (Homo sapiens) (UniProt Q9NQU5); conditions: Compound concentration 1000.0 nM
[15] = molecular target: Alpha-2C adrenergic receptor (Homo sapiens) (UniProt P18825); conditions: Compound concentration 10.0 uM
[16] = molecular target: Tyrosine-protein kinase Lck (Homo sapiens) (UniProt P06239); conditions: Compound concentration 1000.0 nM
[17] = molecular target: Rhodopsin kinase GRK1 (Homo sapiens) (UniProt Q15835); conditions: Compound concentration 1000.0 nM
[18] = molecular target: Receptor tyrosine-protein kinase erbB-3 (Homo sapiens) (UniProt P21860); conditions: Compound concentration 1000.0 nM
[19] = molecular target: Serine/threonine-protein kinase 25 (Homo sapiens) (UniProt O00506); conditions: Compound concentration 1000.0 nM
[20] = molecular target: Glycogen synthase kinase-3 beta (Homo sapiens) (UniProt P49841); conditions: Compound concentration 1000.0 nM
[21] = molecular target: Receptor-interacting serine/threonine-protein kinase 2 (Homo sapiens) (UniProt O43353); conditions: Compound concentration 1000.0 nM
[22] = molecular target: Epidermal growth factor receptor (Homo sapiens) (UniProt P00533); test: Inhibition of Epidermal Growth Factor (EGF) at 10 µM in the Eurofins-Panlabs radioligand binding assay (Eurofins_assay_225510); conditions: Compound concentration 10.0 uM
[23] = molecular target: Substance-P receptor (Homo sapiens) (UniProt P25103); test: Tachykinin NK1 Eurofins-Panlabs radioligand binding assay; conditions: Compound concentration 10.0 uM
[24] = molecular target: Muscarinic acetylcholine receptor M3 (Homo sapiens) (UniProt P20309); conditions: Compound concentration 10.0 uM
[25] = molecular target: Interstitial collagenase (Homo sapiens) (UniProt P03956); test: Inhibition of Peptidase, Matrix Metalloproteinase-1 (MMP-1) at 10 µM in the Eurofins-Panlabs enzyme assay (Eurofins_assay_114110); conditions: Compound concentration 10.0 uM
[26] = molecular target: Kappa-type opioid receptor (Homo sapiens) (UniProt P41145); conditions: Compound concentration 10.0 uM
Caspase-6 (Homo sapiens) = Caspase-6 (Homo sapiens) (UniProt P55212); test: Peptidase, CASP6 (Caspase 6) Eurofins-Panlabs enzyme assay; set-up: substrate with concentration; conditions: Compound concentration 10.0 uM
[27] = molecular target: Melatonin receptor (Gallus gallus) (UniProt P49288+P51050+P49285); test: Melatonin MT, Non-Selective Eurofins-Panlabs radioligand binding assay; type: protein assay; conditions: Compound concentration 10.0 uM
[28] = molecular target: Somatostatin receptor type 3 (Homo sapiens) (UniProt P32745); test: Somatostatin sst3 Eurofins-Panlabs radioligand binding assay; conditions: Compound concentration 10.0 uM
[29] = molecular target: Adenosine Transporter (Cavia porcellus) (UniProt H0V4R7+H0UUG1+H0V3Z5); test: Inhibition of Transporter, Adenosine at compound concentration of 10.0 uM in the Eurofins-Panlabs radioligand binding assay (Eurofins_assay_202000); type: protein assay; set-up: ligand concentration 0.5 nM, non-specific ligand with concentration 5 uM Nitrobenzylthioinosine, incubation time 30 min, incubation temperature 25 C; conditions: Compound concentration 10.0 uM
[30] = molecular target: Prostaglandin F2-alpha receptor (Homo sapiens) (UniProt P43088); test: Prostanoid FP Eurofins-Panlabs radioligand binding assay; set-up: ligand concentration 0.95 nM; conditions: Compound concentration 10.0 uM
[31] = molecular target: T1, Muscarinic acetylcholine receptor M1 (Homo sapiens) (UniProt P11229); test: Agonism inflection point assay
T1 sequence (whole entry): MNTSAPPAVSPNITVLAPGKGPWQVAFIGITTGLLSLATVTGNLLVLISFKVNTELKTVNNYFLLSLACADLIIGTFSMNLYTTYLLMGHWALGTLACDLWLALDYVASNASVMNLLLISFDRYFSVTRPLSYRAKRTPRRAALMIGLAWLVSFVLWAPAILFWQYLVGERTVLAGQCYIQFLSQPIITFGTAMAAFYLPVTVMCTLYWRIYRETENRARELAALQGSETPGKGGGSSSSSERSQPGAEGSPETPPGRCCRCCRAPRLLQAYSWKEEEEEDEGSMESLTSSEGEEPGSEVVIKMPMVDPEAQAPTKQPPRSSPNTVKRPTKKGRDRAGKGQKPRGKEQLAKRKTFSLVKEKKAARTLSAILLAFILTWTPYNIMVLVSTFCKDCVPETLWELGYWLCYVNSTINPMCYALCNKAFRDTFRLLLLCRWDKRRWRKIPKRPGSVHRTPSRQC

monoamine oxidase MAO-B = monoamine oxidase MAO-B (Homo sapiens, UniProt P27338); test: Inhibition of Monoamine Oxidase MAO-B at compound concentration of 10.0 uM in the Eurofins-Panlabs enzyme assay (Eurofins_assay_140120); set-up: substrate with concentration 50 uM Kynuramine, incubation time 60 min, incubation temperature 37 C; conditions: recombinant human MAO-B expressed in insect Hi5 cells, probe kynuramine (50 uM), compound concentration 10 uM
Homo sapiens = organism: Homo sapiens; test: Cholecystokinin CCK2 (CCKB) Eurofins-Panlabs radioligand binding assay; set-up: ligand concentration 0.072 nM, non-specific ligand with concentration 1 µM Sincalide, incubation time 3 h, incubation temperature 25 °C; conditions: Compound concentration 10.0 uM
Rattus norvegicus = organism: Rattus norvegicus; test: Adrenergic α2, Non-selective Eurofins-Panlabs radioligand binding assay; type: protein assay; conditions: Compound concentration 10.0 uM
[32] = molecular target: Vasopressin V1a receptor (Homo sapiens) (UniProt P37288); test: Vasopressin V1A Eurofins-Panlabs radioligand binding assay; set-up: ligand concentration 0.01 nM; conditions: Compound concentration 10.0 uM
Caspase-8 (Homo sapiens) = Caspase-8 (Homo sapiens) (UniProt Q14790); test: Peptidase, CASP8 (Caspase 8) Eurofins-Panlabs enzyme assay; conditions: Compound concentration 10.0 uM

Sequence of Serine/threonine-protein kinase PAK 6 (Homo sapiens) (Q9NQU5 whole entry, looked up): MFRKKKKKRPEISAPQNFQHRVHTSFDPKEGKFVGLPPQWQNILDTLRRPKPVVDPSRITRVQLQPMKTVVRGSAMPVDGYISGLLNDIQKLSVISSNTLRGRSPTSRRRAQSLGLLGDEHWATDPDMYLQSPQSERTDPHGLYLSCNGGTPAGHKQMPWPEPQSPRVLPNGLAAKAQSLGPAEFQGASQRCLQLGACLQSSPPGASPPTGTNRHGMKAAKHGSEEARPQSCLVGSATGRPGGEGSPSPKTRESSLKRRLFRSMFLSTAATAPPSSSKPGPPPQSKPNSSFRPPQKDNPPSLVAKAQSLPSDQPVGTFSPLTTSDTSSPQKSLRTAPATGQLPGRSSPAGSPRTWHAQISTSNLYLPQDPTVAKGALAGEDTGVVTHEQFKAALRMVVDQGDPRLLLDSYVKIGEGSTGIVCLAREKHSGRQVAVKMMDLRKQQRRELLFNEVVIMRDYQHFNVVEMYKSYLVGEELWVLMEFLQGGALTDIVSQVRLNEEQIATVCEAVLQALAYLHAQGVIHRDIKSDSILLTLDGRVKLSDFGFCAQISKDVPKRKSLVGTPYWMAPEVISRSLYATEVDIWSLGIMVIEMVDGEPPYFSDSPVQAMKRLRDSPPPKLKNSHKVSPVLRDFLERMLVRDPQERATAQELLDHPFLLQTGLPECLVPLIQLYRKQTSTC
Sequence of Serine/threonine-protein kinase Sgk1 (Homo sapiens) (O00141 whole entry): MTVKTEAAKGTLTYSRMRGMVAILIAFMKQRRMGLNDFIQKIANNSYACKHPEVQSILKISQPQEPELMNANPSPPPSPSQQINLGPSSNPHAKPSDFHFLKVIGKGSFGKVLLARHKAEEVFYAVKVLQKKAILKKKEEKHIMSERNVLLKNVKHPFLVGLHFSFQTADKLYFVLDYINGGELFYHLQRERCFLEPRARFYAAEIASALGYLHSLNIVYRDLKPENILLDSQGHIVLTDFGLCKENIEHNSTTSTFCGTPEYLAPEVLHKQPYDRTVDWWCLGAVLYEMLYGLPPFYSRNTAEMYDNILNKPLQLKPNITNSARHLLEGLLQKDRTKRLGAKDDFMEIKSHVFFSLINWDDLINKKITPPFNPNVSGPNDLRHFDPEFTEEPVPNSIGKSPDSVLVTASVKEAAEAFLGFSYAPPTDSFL
Sequence of Wee1-like protein kinase 2 (Homo sapiens) (P0C1S8 whole entry, looked up): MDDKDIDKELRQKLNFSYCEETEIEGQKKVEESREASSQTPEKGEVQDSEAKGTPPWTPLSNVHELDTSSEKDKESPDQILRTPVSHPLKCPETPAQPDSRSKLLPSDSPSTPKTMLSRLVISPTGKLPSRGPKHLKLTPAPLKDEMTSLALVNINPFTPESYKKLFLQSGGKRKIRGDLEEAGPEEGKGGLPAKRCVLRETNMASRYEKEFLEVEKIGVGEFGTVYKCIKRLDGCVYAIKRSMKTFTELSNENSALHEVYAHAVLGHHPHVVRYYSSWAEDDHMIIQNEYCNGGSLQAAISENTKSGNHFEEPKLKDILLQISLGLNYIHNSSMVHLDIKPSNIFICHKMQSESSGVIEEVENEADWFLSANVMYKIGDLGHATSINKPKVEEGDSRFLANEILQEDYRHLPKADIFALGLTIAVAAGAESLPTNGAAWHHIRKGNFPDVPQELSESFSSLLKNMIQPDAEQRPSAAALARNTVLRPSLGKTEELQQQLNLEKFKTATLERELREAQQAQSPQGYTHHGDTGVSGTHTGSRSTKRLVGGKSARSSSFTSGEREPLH
Sequence of Cyclin-dependent kinase 19 (Homo sapiens) (Q9BWU1 whole entry): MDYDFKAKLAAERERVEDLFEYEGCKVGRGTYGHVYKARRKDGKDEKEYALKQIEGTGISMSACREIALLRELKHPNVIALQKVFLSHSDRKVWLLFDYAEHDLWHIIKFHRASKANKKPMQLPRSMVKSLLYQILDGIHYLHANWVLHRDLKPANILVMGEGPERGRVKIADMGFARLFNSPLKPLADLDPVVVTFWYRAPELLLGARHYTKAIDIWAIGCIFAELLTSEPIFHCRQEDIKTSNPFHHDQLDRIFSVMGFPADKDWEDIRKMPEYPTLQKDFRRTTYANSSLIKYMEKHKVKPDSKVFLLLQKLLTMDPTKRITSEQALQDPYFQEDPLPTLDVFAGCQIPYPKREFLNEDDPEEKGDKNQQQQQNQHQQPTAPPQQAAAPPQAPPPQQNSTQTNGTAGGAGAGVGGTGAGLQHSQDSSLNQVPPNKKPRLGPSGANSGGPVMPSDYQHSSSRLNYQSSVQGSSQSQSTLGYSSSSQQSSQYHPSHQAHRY
Sequence of Ankyrin repeat and protein kinase domain-containing protein 1 (Homo sapiens) (Q8NFD2 whole entry, the tested form may be a part): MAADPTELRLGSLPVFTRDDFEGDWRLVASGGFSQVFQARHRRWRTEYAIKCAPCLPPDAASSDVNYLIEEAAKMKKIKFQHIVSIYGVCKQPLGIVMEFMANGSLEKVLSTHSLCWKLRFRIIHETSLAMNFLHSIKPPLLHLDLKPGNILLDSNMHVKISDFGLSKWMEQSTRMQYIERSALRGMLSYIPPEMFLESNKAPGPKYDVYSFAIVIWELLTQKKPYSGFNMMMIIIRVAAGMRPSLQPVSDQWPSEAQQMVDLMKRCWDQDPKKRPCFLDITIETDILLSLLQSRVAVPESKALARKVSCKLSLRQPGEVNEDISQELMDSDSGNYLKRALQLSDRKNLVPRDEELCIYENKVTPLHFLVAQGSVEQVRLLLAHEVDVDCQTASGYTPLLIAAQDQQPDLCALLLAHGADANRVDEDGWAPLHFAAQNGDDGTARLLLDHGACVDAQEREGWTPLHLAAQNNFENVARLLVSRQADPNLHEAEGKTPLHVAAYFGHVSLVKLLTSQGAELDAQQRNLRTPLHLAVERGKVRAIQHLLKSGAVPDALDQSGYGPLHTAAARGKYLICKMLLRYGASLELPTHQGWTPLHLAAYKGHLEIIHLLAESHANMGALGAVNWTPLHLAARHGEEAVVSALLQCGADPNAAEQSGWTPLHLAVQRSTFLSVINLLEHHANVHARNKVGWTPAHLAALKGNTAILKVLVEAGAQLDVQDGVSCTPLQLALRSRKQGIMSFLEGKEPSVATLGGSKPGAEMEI
Sequence of Glycogen synthase kinase-3 beta (Homo sapiens) (P49841 whole entry, looked up): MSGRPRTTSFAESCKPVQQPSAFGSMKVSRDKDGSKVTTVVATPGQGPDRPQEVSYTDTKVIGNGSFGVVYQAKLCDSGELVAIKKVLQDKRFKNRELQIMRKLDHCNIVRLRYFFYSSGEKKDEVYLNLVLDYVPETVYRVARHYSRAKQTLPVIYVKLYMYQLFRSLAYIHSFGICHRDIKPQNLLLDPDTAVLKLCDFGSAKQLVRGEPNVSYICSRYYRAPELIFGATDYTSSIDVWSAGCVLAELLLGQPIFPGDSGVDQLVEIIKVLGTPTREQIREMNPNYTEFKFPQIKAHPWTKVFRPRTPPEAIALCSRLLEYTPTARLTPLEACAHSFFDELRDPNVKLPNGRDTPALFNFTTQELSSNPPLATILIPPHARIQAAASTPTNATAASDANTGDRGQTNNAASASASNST
Sequence of Tyrosine-protein kinase Lck (Homo sapiens) (P06239 2-509 limits assumed): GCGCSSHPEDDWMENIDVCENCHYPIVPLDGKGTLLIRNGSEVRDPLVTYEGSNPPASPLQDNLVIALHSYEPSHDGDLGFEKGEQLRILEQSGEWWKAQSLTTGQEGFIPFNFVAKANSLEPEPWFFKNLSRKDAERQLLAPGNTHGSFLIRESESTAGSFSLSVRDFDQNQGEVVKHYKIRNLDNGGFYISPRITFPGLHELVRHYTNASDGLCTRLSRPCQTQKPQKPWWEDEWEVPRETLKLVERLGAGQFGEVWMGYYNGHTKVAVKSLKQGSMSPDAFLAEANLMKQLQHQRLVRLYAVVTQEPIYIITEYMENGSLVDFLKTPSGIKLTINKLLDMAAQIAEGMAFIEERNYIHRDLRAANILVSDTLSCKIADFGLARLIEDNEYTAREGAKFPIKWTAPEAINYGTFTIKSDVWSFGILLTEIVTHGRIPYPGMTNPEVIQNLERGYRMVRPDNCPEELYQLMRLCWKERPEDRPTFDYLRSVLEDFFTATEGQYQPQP
Sequence of Receptor-interacting serine/threonine-protein kinase 2 (Homo sapiens) (O43353 whole entry): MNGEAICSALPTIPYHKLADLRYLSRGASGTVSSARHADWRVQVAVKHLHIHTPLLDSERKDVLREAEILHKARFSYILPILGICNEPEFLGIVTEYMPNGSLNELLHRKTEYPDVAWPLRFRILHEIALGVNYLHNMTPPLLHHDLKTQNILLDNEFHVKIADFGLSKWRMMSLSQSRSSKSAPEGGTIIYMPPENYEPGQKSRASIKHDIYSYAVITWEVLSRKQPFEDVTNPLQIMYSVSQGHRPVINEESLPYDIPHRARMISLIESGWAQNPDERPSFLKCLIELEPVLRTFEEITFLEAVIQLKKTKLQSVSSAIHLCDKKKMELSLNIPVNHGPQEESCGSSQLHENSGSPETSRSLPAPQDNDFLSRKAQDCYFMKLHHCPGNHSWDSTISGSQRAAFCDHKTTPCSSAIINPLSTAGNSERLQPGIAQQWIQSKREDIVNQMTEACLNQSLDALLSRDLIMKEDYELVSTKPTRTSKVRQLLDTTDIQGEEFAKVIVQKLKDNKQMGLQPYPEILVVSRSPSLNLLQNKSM
Sequence of Serine/threonine-protein kinase 25 (Homo sapiens) (O00506 whole entry, looked up): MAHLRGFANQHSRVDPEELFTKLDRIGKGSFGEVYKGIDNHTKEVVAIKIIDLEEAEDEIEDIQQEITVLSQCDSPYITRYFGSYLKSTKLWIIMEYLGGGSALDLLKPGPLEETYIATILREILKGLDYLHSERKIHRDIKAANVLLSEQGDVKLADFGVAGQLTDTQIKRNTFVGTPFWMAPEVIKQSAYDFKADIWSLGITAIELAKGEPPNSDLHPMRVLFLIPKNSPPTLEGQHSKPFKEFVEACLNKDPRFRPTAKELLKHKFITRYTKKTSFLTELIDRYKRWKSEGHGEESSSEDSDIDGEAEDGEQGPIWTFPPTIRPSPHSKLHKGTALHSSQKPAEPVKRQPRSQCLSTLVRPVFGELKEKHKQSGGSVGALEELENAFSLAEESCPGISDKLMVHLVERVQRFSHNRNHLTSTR

Row | SMILES | residual activity [1] | residual activity [2] | residual activity [3] | residual activity [4] | residual activity [5] | residual activity [6] | residual activity [7] | residual activity [8] | residual activity [9] | residual activity [10] | residual activity [11] | residual activity [12] | residual activity [13] | residual activity [14] | residual activity [16] | residual activity [17] | residual activity [18] | residual activity [19] | residual activity [20] | residual activity [21] | further results
1 | N#CC1(c2ccccn2)CCN(Cc2cc(C(=O)N3CCCC3)c(=O)n3ccccc23)CC1 | 76% | 91% | 100% | 100% | 88% | 75% | 98% | 100% | 79% | 79% | 83% | 85% | 95% | 100% | 100% | 85% | 93% | 97% | 100% | 83% | inhibition [15]: 1.13%
2 | N#CC1(c2ccccn2)CCN(Cc2cc(C(=O)O)c(=O)n3ccccc23)CC1 [MSD-M1PAM] | 91% | 100% | 98% | 87% | 74% | 82% | 74% | 97% | 100% | 68% | 86% | 97% | 100% | 100% | 97% | 84% | 100% | 100% | 100% | 92% | inhibition [22]: -7%; inhibition [23]: 0%; inhibition [24]: 3%; inhibition [25]: 15%; inhibition [26]: 2%; inhibition (Caspase-6 (Homo sapiens)): 13%; inhibition [27]: -6%; inhibition [28]: 2%; inhibition [29]: 2%; inhibition [30]: 12%; Agonism inflection point [31]: 7.38 µM; inhibition at 60 min, 10 µM (monoamine oxidase MAO-B): -5% (not active); inhibition (Homo sapiens): -3%; inhibition (Rattus norvegicus): -7%; inhibition [32]: -5%; inhibition (Caspase-8 (Homo sapiens)): 9%
